Data taken from paper PMC4833300, “Identification of Trypanocidal Activity for Known Clinical Compounds Using a New Trypanosoma cruzi Hit-Discovery Screening Cascade” (PLoS Neglected Tropical Diseases, 2016).
Where two headings read alike, the source gives them in different places.

Assays:
intracellular T. cruzi [1] = assay: Static-cidal assay (percent infected Vero cells, 96 h); type: cell-based, Trypanosoma cruzi (Silvio X10/7 A1) in Vero cells; conditions: for MAX PI / maximum inhibition in the static-cidal assay: 96h timeframe of the assay
Method: The secondary static-cidal assay uses the same protocol as the standard assay with the following changes: infection is done at MOI 10, and infected Vero cells are incubated 88h at 37°C in presence of 5% CO2 prior to trypsinisation and plating. Four hours after plating a control plate (no compounds) was fixed with formaldehyde as described above. Compound containing plates were fixed after incubation for 96 hours. Compounds are run as ten point dose response curves in triplicate. The algorithm for the secondary assay was similar to the primary assay but reported percent infected Vero cells instead of the mean number of parasites.
To assess screening hits for their ability to be cytocidal rather than cytostatic or growth slowing we developed a medium throughput (400 compounds / batch) assay to predict cidality of compounds against intracellular T. cruzi. […] Instead we developed an algorithm that assesses whether a Vero cell is infected or not, and we used the percentage of infected cells as primary measurement for the static-cidal assay. In order to readily identify cidal compounds we normalised the raw data using the starting level of infection as 0% effect and the final level of infection in presence of 50μM Nifurtimox as 100% effect control.

CYP51 = CYP51 (Trypanosoma cruzi, UniProt Q7Z1V1); assay: biochemical; type: biochemical
Chain of CYP51 (Q7Z1V1 whole entry): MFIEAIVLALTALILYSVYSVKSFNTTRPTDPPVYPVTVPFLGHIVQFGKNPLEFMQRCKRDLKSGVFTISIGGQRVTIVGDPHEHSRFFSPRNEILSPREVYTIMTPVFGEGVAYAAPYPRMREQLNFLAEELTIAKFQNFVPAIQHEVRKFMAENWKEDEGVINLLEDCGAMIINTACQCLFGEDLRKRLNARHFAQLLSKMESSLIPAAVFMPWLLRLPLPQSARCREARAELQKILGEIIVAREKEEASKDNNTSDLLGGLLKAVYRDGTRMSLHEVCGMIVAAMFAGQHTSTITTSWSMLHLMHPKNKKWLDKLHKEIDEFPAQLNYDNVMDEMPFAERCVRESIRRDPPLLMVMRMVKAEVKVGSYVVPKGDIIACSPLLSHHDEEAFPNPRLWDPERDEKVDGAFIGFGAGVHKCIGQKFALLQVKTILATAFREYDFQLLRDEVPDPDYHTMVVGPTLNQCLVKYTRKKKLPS

[2] = test system: intracellular T. cruzi amastigotes; assay: Primary high-content intracellular T. cruzi amastigote assay; type: cell-based, Trypanosoma cruzi (Silvio X10/7 A1) in Vero cells
Method: (§1) The compounds tested were obtained from the NIH (Clinical Collection) and from SelleckChem (FDA-approved drug library). Compounds were dispensed into black 384-well assay plates (Corning) by acoustic dispensing (LabCyte ECHO). […] Potencies are reported as pEC50 (-LOG(EC50[M])).
(§2) For the primary intracellular assay the infection conditions were chosen so that no trypomastigote egress occurs during the compound incubation time. First, Vero cells were infected overnight with tissue culture derived T. cruzi trypomastigotes in T225 tissue culture flasks (MOI 5). Next, any remaining free trypomastigotes were washed away with serum free MEM and the infected Vero cells were harvested by trypsinisation. The infected Vero cells were then plated into 384-well plates containing the compounds to be tested, at 4000 cells per well in MEM media with 1% FCS. […] The plates were imaged on a Perkin Elmer Operetta high-content imaging system using a 20x objective. Images were analysed using the Columbus system (Perkin Elmer). The algorithm for the primary assay first identified the Vero nuclei followed by demarcation of the cytoplasm and identification of intracellular amastigotes. This algorithm reported mean number of parasites per Vero cell and total number of Vero cells. Data analysis was as described in [22]. […] Hits from the primary screen were selected based on the following criteria: T. cruzi activity (percent inhibition) > (median T. cruzi percent inhibition + 3 x robust Standard Deviation) and Vero activity (percent inhibition) < (median percent Vero inhibition + 3 x robust Standard Deviation).

intracellular T. cruzi [3] = assay: Rate-of-kill assay (static-cidal assay in timecourse format); type: cell-based, Trypanosoma cruzi (Silvio X10/7 A1) in Vero cells; conditions: for rate-of-kill profile (onset / rate of cidal activity): timepoints every 24h up to 96 h; for MCC: Trypanosoma cruzi, -LOG(MCC[M]), minimum cidal concentration, lowest concentration clearing at least half as many Vero cells as Nifurtimox (50μM) within 96 h, read-out: pMCC (RoK) (converted); for final residual level of infection (percent infected cells at the end of the assay): end of rate-of-kill timecourse (96 h)
Method: The rate-of-kill assay uses the same protocol as the static-cidal assay but plates are incubated for 24, 48, 72 and 96 hours prior to fixing. Percent infected data is plotted as a time-course for each compound at every concentration. The minimum cidal concentration (MCC) is defined as the lowest concentration of compound that clears at least half as many Vero cells of intracellular parasites as Nifurtimox (50μM) within the timeframe of the assay.
To obtain rate-of-kill information we carried out the static-cidal assay in timecourse format (Fig 4A), with timepoints taken every 24h.

[4] = humans; cited from earlier work
Vero cells = assay: Host cell toxicity read-out of the primary assay (Vero cell count); type: cell-based; conditions: Chlorocebus sabaeus, Vero; hits of the bio-actives screen, 10-point dose-response, top concentration 50μM, 72h; read-out: pEC50 (Vero) (converted)
Method: as §1, §2

[5] = Trypanosoma cruzi, Vero, 96 h, 0% = starting level of infection, 100% = 50μM Nifurtimox at 96h, only from concentrations not toxic to the host cells, read-out: MAX PI (SC), Maximum Percent Inhibition in the static cidal assay
[6] = read-out: CYP51 pIC50 (converted)
[7] = Trypanosoma cruzi; hits of the bio-actives screen, 10-point dose-response, top concentration 50μM, 72h; read-out: pEC50 (cruzi) (converted)
[8] = Trypanosoma cruzi, 72 h; read-out: EC50
[9] = Trypanosoma cruzi, 72 h; read-out: Mean pEC50 (converted)

For CCOC(=O)C1=C(COCCN)NC(C)=C(C(=O)OC)C1c1ccccc1Cl (centres unmarked) [Amlodipine], the Emax (intracellular T. cruzi [1]; [5]) was 113%, the IC50 (CYP51; [6]) was greater than 10000 nM and the EC50 [2, 7] was 501 nM.

For Cc1cn(-c2cc(NC(=O)c3ccc(C)c(Nc4nccc(-c5cccnc5)n4)c3)cc(C(F)(F)F)c2)cn1 [Nilotinib], the “rate-of-kill profile (onset / rate of cidal activity)” value (intracellular T. cruzi [3]) was “a much slower rate”, the Emax (intracellular T. cruzi [1]; [5]) was 38% and the “CYP51 inhibition (in words)” value (CYP51) was “strong CYP51 inhibition”. For the same compound, the EC50 [2, 7] was 2510 nM.

In the case of CN1CCC[C@@H]1CCO[C@](C)(c1ccccc1)c1ccc(Cl)cc1 [Clemastine], the oral bioavailability [4] is given as “reasonable oral bioavailability” and the MCC (intracellular T. cruzi [3]) is given as 2e-07 M.

For CC1CS(=O)(=O)CCN1/N=C/c1ccc([N+](=O)[O-])o1 (centres unmarked) [Nifurtimox], the MCC (intracellular T. cruzi [3]) was 5.01e-06 M, the “final residual level of infection (percent infected cells at the end of the assay)” value (intracellular T. cruzi [3]) was ~ 8% and the “rate-of-kill profile (onset / rate of cidal activity)” value (intracellular T. cruzi [3]) was “killing seen from 24h onwards”. For the same compound, the “MAX PI / maximum inhibition in the static-cidal assay” value (“MAX PI / maximum inhibition” for short) (intracellular T. cruzi [1]) was “around 100%”, the inhibition at 50 µM (intracellular T. cruzi [1]; [5]) was 103% and the IC50 (CYP51) was greater than 10000 nM. The EC50 [2, 8] was 260 nM and the EC50 [2, 9] was 251 nM.

With CC[C@@H]([C@H](C)O)n1ncn(-c2ccc(N3CCN(c4ccc(OC[C@@H]5CO[C@@](Cn6cncn6)(c6ccc(F)cc6F)C5)cc4)CC3)cc2)c1=O [Posaconazole] the MCC (intracellular T. cruzi [3]) was 1e-07 M, the “final residual level of infection (percent infected cells at the end of the assay)” value (intracellular T. cruzi [3]) was ~ 15% and the “rate-of-kill profile (onset / rate of cidal activity)” value (intracellular T. cruzi [3]) was “slower acting with a later onset of cidal activity”. For the same compound, the “MAX PI / maximum inhibition” value (intracellular T. cruzi [1]) was 60%, the Emax (intracellular T. cruzi [1]; [5]) was 59% and the EC50 [2, 8] was 1 nM. It also gave an EC50 [2, 9] of 1 nM.

With C[C@]12CC[C@H](O)CC1=CC[C@@H]1[C@@H]2CC[C@]2(C)C(c3cccnc3)=CC[C@@H]12 [Abiraterone] the EC50 (Vero cells) was 31600 nM, the MCC (intracellular T. cruzi [3]) was 5.01e-05 M and the Emax (intracellular T. cruzi [1]; [5]) was 60%. For the same compound, the IC50 (CYP51; [6]) was greater than 1000 nM and the EC50 [2, 7] was 794 nM.

Work on CC(=O)N1CCN(c2ccc(OCC3COC(Cn4ccnc4)(c4ccc(Cl)cc4Cl)O3)cc2)CC1 (centres unmarked) [Ketoconazole] yielded an EC50 (Vero cells) of 31600 nM, an MCC (intracellular T. cruzi [3]) of 7.94e-09 M and an Emax (intracellular T. cruzi [1]; [5]) of 61%. It also gave an EC50 [2, 8] of 2 nM, an EC50 [2, 9] of 2 nM and an EC50 [2, 7] of 5.01 nM.

CCC(C)n1ncn(-c2ccc(N3CCN(c4ccc(OCC5COC(Cn6cncn6)(c6ccc(Cl)cc6Cl)O5)cc4)CC3)cc2)c1=O (centres unmarked) [Itraconazole] showed an EC50 (Vero cells) of 15800 nM, an MCC (intracellular T. cruzi [3]) of 6.31e-08 M and an Emax (intracellular T. cruzi [1]; [5]) of 71%. It also gave an EC50 [2, 7] of 10 nM.

In the case of CN1CCCC(n2nc(Cc3ccc(Cl)cc3)c3ccccc3c2=O)CC1 (centres unmarked) [Azelastine], the oral bioavailability [4] is given as “reasonable oral bioavailability”, the EC50 (Vero cells) is given as 15800 nM and the MCC (intracellular T. cruzi [3]) is given as 2e-06 M. The “rate-of-kill profile (onset / rate of cidal activity)” value (intracellular T. cruzi [3]) was “a more delayed response”, the Emax (intracellular T. cruzi [1]; [5]) was 106% and the IC50 (CYP51; [6]) was greater than 10000 nM. The EC50 [2, 7] was 251 nM.

In the case of c1ccc(-c2ccc(C(c3ccccc3)n3ccnc3)cc2)cc1 (centres unmarked) [Bifonazole], the EC50 (Vero cells) is reported as 15800 nM, the MCC (intracellular T. cruzi [3]) is reported as 6.31e-08 M and the Emax (intracellular T. cruzi [1]; [5]) is reported as 69%. For the same compound, the IC50 (CYP51; [6]) was 39.8 nM and the EC50 [2, 7] was 10 nM.

In the case of CC(C(O)c1ccc(O)cc1)N1CCC(Cc2ccccc2)CC1 (centres unmarked) [Ifenprodil], the oral bioavailability [4] is listed as “reasonable oral bioavailability”, the EC50 (Vero cells) is listed as 50100 nM and the MCC (intracellular T. cruzi [3]) is listed as 2e-06 M. It also gave an Emax (intracellular T. cruzi [1]; [5]) of 117%, an IC50 (CYP51; [6]) greater than 10000 nM and an EC50 [2, 7] of 501 nM.

For O=C1Cc2cc(CCN3CCN(c4nsc5ccccc45)CC3)c(Cl)cc2N1 [Ziprasidone], the oral bioavailability [4] is given as “reasonable oral bioavailability”, the EC50 (Vero cells) is given as 25100 nM and the MCC (intracellular T. cruzi [3]) is given as 5.01e-06 M. For the same compound, the “rate-of-kill profile (onset / rate of cidal activity)” value (intracellular T. cruzi [3]) was “fast onset of cidality”, the Emax (intracellular T. cruzi [1]; [5]) was 111% and the IC50 (CYP51; [6]) was greater than 10000 nM. It also gave an EC50 [2, 7] of 1580 nM.

In the case of CCOC(=O)C(C)(C)Oc1ccc(Cl)cc1 [Clofibrate], the oral bioavailability [4] is given as “reasonable oral bioavailability”, the EC50 (Vero cells) is given as 15800 nM and the MCC (intracellular T. cruzi [3]) is given as 1.58e-05 M. The Emax (intracellular T. cruzi [1]; [5]) was 116%, the IC50 (CYP51) was greater than 10000 nM and the EC50 [2, 7] was 6310 nM.

In the case of O=C(Cn1ccnc1[N+](=O)[O-])NCc1ccccc1 [Benznidazole], the “final residual level of infection (percent infected cells at the end of the assay)” value (intracellular T. cruzi [3]) is reported as ~ 8%, the “rate-of-kill profile (onset / rate of cidal activity)” value (intracellular T. cruzi [3]) is reported as “killing seen from 24h onwards” and the “MAX PI / maximum inhibition” value (intracellular T. cruzi [1]) is reported as “around 100%”. The Emax (intracellular T. cruzi [1]; Trypanosoma cruzi, Vero, 96 h, read-out: MAX PI (SC), Maximum Percent Inhibition in the static cidal assay) was 91%, the IC50 (CYP51; [6]) was greater than 10000 nM and the EC50 ([2]; Trypanosoma cruzi, 72 h) was 490 nM. It also gave an EC50 ([2]; Trypanosoma cruzi, 72 h, read-out: Mean pEC50 (converted)) of 501 nM.
